From patent US20260265298A1, “PEPTIDE SUBSTRATES AND INHIBITORS OF CATHEPSIN B” (The Regents of the University of California, priority 2023, published 2026)

Tests used:
[1] = test system: TBI mice; test: Rotarod motor function in controlled cortical impact (CCI) model of TBI; format: in vivo, mouse; conditions: 20 mg/kg, ip, one day before TBI, day of TBI and day 1 after; measured day 1 after TBI
Protocol: (§1) FIGS. 13a-13e show traumatic brain injury (TBI) in mice results in elevated brain cathepsin B activity, involved in motor deficit. […] Mice were subjected to the controlled cortical impact (CCI) model of TBI. Motor function was assessed by the rotarod assay on days 1, 3, and 7 after TBI. Control sham mice received surgery of the scalp but no TBI. Rotarod data are shown as mean+SD (n=5/group, mean+sem, *p<0.05, student's t-test). […] The TBI injury was conducted on the ipsilateral side of the brain cortex, shown by the tissue lesion at the site of TBI impact. […] Cathepsin B activity in homogenate of mouse brain cortex was measured with the Z-Nle-Lys-Arg-AMC substrate on day 6 after TBI. These TBI mice were treated with vehicle or Z-Arg-Lys-AOMK inhibitor (20 mg/kg, ip). (n=6 per group for vehicle-treated, and n=4 per group for treatment with inhibitor Z-Arg-Lys-AOMK; mean+sem, p<0.05, student's t-test).
TBI mice were treated with Z-Arg-Lys-AOMK inhibitor (20 mg/kg, ip) one day before TBI, on the day of TBI, and on day 1 after TBI. Motor function was measured on day 1 after TBI. (n=6 per group for vehicle-treated, and n=4 per group for treatment with inhibitor Z-Arg-Lys-AOMK; mean+sem, p<0.05, student's t-test).

[2] = target: T1, cathepsin B (Mus musculus, UniProt P10605); test: Cytosolic cathepsin B activity in microglia cells during low nutrient stress; format: cell-based; conditions: 2 μM; 0% FBS for 24 hours; substrate Z-Nle-Lys-Arg-AMC
T1 construct: from tissue; host or cells: mouse ipsilateral brain cortex (homogenate and cytosol) after controlled cortical impact TBI
Protocol: (§2) Regulation of cathepsin B activity during cell death induced by low nutrient stress in microglia cells. […] Microglia cells (mouse BV2 cells) were treated with low nutrient culture media (0% fetal bovine serum, FBS) compared to a normal nutrient condition (10% FSB) for 24 hours. The low nutrient stress condition induced cell death monitored by LDH (lactate dehydrogenase) released into the culture media. The stress-induced increase in cell death was reduced by the inhibitor Z-Arg-Lys-AOMK (2 μM), a selective inhibitor of cathepsin B. (n=6, mean+sem, *p<0.05, student's t-test). […] Cathepsin B activity was elevated in cytosol isolated from microglia cells after treatment with low nutrient stress (0% FBS) for 24 hours. Cathepsin B activity was measured with the specific substrate Z-Nle-Lys-Arg-AMC ([…] in assay). Furthermore, the increase in cytosolic cathepsin B activity was blocked by the cathepsin B inhibitor Z-Arg-Lys-AOMK (2 μM) during low nutrient stress. (n=6, mean+sem, *p<0.05, student's t-test).

[3] = target: T1, cathepsin B; test: Cathepsin B activity in ipsilateral brain cortex of TBI mice; format: in vivo; conditions: 20 mg/kg, ip; day 6 after TBI
Protocol: as §1
Cytosol from brain homogenate (obtained on day 6 after TBI) was isolated by differential density centrifugation. Cathepsin B in the cytosol from brain cortex was measured by the substrate Z-Nle-Lys-Arg-AMC substrate. (n=6 per group for vehicle treated, and n=4 per group for treatment with inhibitor Z-Arg-Lys-AOMK: mean+sem, p<0.05, student's t-test).

[4] = test system: mouse BV2 microglia cells; test: Cell death (LDH release) induced by low nutrient stress in microglia cells; format: cell-based; conditions: 2 μM; 0% FBS for 24 hours
Protocol: as §2

T1 sequence (P10605 80-333): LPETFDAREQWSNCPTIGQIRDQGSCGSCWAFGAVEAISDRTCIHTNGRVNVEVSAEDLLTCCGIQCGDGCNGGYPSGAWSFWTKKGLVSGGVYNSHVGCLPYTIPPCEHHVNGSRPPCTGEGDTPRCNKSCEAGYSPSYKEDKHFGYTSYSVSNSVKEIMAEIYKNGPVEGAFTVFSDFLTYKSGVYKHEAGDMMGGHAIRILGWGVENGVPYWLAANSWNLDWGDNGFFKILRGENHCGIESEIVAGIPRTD

Z-Arg-Lys-AOMK
motor deficit (rotarod) [1]: improved motor deficit
increase in cytosolic cathepsin B activity [2]: blocked
cathepsin B activity in brain cortex cytosol [3]: inhibition of cathepsin B activity
cathepsin B activity in brain cortex homogenate [3]: inhibition of cathepsin B activity
stress-induced increase in cell death (LDH released into the culture media) [4]: reduced
